Results taken from US20050198896A1, “Novel vegetal reinforcing agent based on phytohormones for use in the cultivation of plants or agriculture, preferably in the cultivation of fruit or in wine growing” (priority 2002, published 2005).

Tests used:
[1] = system: trees in fruit crops; test: renewed burgeoning following rain after a prolonged period of dryness; type: in vivo, trees in fruit crops; potatoes; conditions: also observed in potatoes
Excerpt: It has furthermore been observed that trees in fruit crops following rain after a prolonged period of dryness burgeon again. This has a negative influence on the quality of the fruit. […] This effect has also been observed in potatoes.

[2] = system: firs and spruces; test: stress-susceptibility and needle retention of Christmas trees; type: in vivo
[3] = system: vine; test: quality enhancement in wine growing with ABA; type: in vivo; conditions: applied for several weeks prior to harvest
Excerpt: ABA can also be used for quality enhancement in wine growing. […] This leads to a higher density of the wine and thereby to wines with improved storage stability. Analogous effects occur in pears and apples.

[4] = system: sugar-beets; test: sugar transport from the leaves into the beet body; type: in vivo; conditions: about 2 to 3 weeks before harvest; same effect in potatoes, red beet and carrots
Excerpt: A further surprising inventive feature of the phytohormonal properties of ABA is the effect of promoting the protein and sugar transport in the plants from the leaves into the root(s). […] The same effect is observed in potatoes, red beet and carrots. The increase in sugar content leads to a substantial quality improvement of the harvested produce.

[5] = system: chrysanthemums; test: frost resistance, damaged flowers after frost; type: in vivo; conditions: application about 24 hours prior to the frost
Protocol: Just as astonishing is the effect that exogenous application of ABA leads to frost resistance in crops, e.g. pears and apples, of adornment plants and fruit crops which has been observed. Application about 24 hours prior to the frost reduced the number of damaged flowers in chrysanthemums by 48%.

[6] = system: cherry crops; test: bursting of cherries after rainfall, exogenous application of ABA before rainfall; type: in vivo; conditions: variety Hedelfinger
Excerpt: In cherry crops it is an important problem that if it rains shortly before the harvest the cherries are capable of absorbing large quantities of water in their interior. This frequently causes them to burst so that they can no longer be utilized. Exogenous application of ABA in cherry crops before rainfall reduces the bursting of the variety Hedelfinger, for example, by up to 30%.

[7] = system: apples and pears; test: leaf abortion in apples and pears; type: in vivo
Excerpt: This makes a further treatment with a fungicide unnecessary.

[8] = system: grapes; test: GA3 in grapes compared to treatment with ethephon; type: in vivo
Excerpt: (§1) According to a further embodiment of the invention, GA3 and/or GA4/7 is/are used during the blooming period in the cultivation of […] grapes, table grapes or of grapes for special purposes, to enhance quality and as a protective measure against botrytis disease, in an application concentration of 5 to 100, preferably 5 to 50, especially 10 to 20 ppm, based on a quantity of water of 300 to 500, preferably 350 to 450 l/ha.

[9] = system: botrytis disease; test: infestation of grapes with botrytis disease; type: in vivo; conditions: loosening-up of the grapes (lengthening of the stalks)
Excerpt: as §1, with “l/ha. […] By contrast to conventional treatment with fungicides this happens purely mechanically/morphologically since the greater length of the stalks prevents mutual pushing away of the grapes, and damage to the grapes is thereby avoided. Such damage results in the occurrence of nest-shaped focuses of rot.” for “l/ha.”

| Structure (SMILES) | renewed burgeoning of the plants [1] | needle retention ([2]; compared with untreated trees) | stress-susceptibility ([2]; firs and spruces harvested as Christmas trees) | increase in sugar content of the grapes [3] | reduction of the size of the grapes [3] | transport of leaf sugar into the body of the beet [4] | reduction of the number of damaged flowers [5] [%] | reduction of the bursting of cherries [6] | leaf abortion [7] | density of the wine, colour and wine quality [8] | grape weight [8] | mean grape diameter [8] | infestation with botrytis disease [9] |
| --- | --- | --- | --- | --- | --- | --- | --- | --- | --- | --- | --- | --- | --- |
| CC(C=C[C@@]1(O)C(C)=CC(=O)CC1(C)C)=CC(=O)O (stereo in doubt) [ABA, (S)-5-(1-hydroxy-2,6,6-trimethyl-4-oxo-2-cyclohexenyl)-3-methyl-cis/trans-2,4-pentadienoic acid] | prevents renewed burgeoning of the plants | keep their needles for much longer than untreated trees | reduction of stress-susceptibility | comparable increase in sugar content | up to 10% | the sugar present in the leaves is additionally transported into the body of the beet | 48 | up to 30% | quick leaf abortion | – | – | – | – |
| C=C1C[C@]23C[C@@]1(O)CC[C@H]2[C@@]12C=C[C@H](O)[C@@](C)(C(=O)O1)[C@H]2[C@@H]3C(=O)O [GA3, gibberellin A3] | – | – | – | – | – | – | – | – | – | improved | no reduction in grape weight is observed | larger | reduction in infestation with botrytis disease |
